Data taken from PubChem BioAssay AID270 (DTP/NCI, 2004).
Several values for one entry are separate records, joined by “and”; a condition that tells them apart may be missing. Identical values can stand only once. Results filed as inconclusive are left out.

System: BDF1 mice, s.c. Lewis lung carcinoma, T/C %
Experiment: NCI In Vivo Anticancer Drug Screen. Data for tumor model Lewis Lung Carcinoma (subcutaneous) in B6D2F1 (BDF1) mice
Method in brief: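 Transplanted tumors grown in mice; compound vs vehicle dosing; endpoint survival or tumor size; ratio T/C.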

[1] = endpoint: median survival time, dose: 12.5 mg/kg/injection, schedule: Q01DX009 (ip), vehicle: Klucel (hydroxypropylcellulose) (HPC), higher = longer survival
[2] = endpoint: median survival time, dose: 25.0 mg/kg/injection, schedule: Q01DX009 (ip), vehicle: Klucel (hydroxypropylcellulose) (HPC), higher = longer survival

With `S=c1nc[nH]c2nc[nH]c12` the T/C (endpoint: mean tumor weight, dose: 5.0 mg/kg/injection, schedule: Q01DX011 (ip), vehicle: alkali diluted with saline, higher = larger tumour) was 58 % of control, the T/C (endpoint: mean tumor weight, dose: 10.0 mg/kg/injection, schedule: Q01DX011 (ip), vehicle: alkali diluted with saline, higher = larger tumour) was 60 % of control and the T/C (endpoint: mean tumor weight, dose: 12.5 mg/kg/injection, schedule: Q01DX011 (ip), vehicle: alkali diluted with saline, higher = larger tumour) was 62 % of control. The T/C (endpoint: mean tumor weight, dose: 20.0 mg/kg/injection, schedule: Q01DX011 (ip), vehicle: alkali diluted with saline, higher = larger tumour) was 51 % of control, the T/C (endpoint: mean tumor weight, dose: 25.0 mg/kg/injection, schedule: Q01DX011 (ip), vehicle: alkali diluted with saline, higher = larger tumour) was 66 % of control and the T/C (endpoint: mean tumor weight, dose: 50.0 mg/kg/injection, schedule: Q01DX011 (ip), vehicle: alkali diluted with saline, higher = larger tumour) was 62 % of control. For the same compound, the T/C (endpoint: median survival time, dose: 0.3 mg/kg/injection, schedule: Q01DX000 (ip), vehicle: alkali diluted with saline, higher = longer survival) was 106 % of control, the T/C (endpoint: median survival time, dose: 1.0 mg/kg/injection, schedule: Q01DX009 (ip), vehicle: saline, higher = longer survival) was 106 % of control and the T/C (endpoint: median survival time, dose: 2.0 mg/kg/injection, schedule: Q01DX009 (ip), vehicle: saline, higher = longer survival) was 121 % of control. The T/C (endpoint: median survival time, dose: 3.0 mg/kg/injection, schedule: Q01DX000 (ip), vehicle: alkali diluted with saline, higher = longer survival) was 101 % of control, the T/C (endpoint: median survival time, dose: 4.0 mg/kg/injection, schedule: Q01DX009 (ip), vehicle: saline, higher = longer survival) was 117 % of control and the T/C (endpoint: median survival time, dose: 8.0 mg/kg/injection, schedule: Q01DX009 (ip), vehicle: saline, higher = longer survival) was 121 % of control. For the same compound, the T/C (endpoint: median survival time, dose: 10.0 mg/kg/injection, schedule: Q01DX011 (ip), vehicle: alkali diluted with saline, higher = longer survival) was 98 % of control, the T/C (endpoint: median survival time, dose: 15.0 mg/kg/injection, schedule: Q01DX009 (ip), vehicle: saline with Tween-80, higher = longer survival) was 108 % of control and the T/C (endpoint: median survival time, dose: 20.0 mg/kg/injection, schedule: Q01DX011 (ip), vehicle: alkali diluted with saline, higher = longer survival) was 91 % of control. The T/C (endpoint: median survival time, dose: 30.0 mg/kg/injection, schedule: Q01DX000 (ip), vehicle: alkali diluted with saline, higher = longer survival) was 97 % of control, the T/C (endpoint: median survival time, dose: 30.0 mg/kg/injection, schedule: Q01DX009 (ip), vehicle: Klucel (hydroxypropylcellulose) (HPC), higher = longer survival) was 104 % of control and the T/C (endpoint: median survival time, dose: 40.0 mg/kg/injection, schedule: Q01DX011 (ip), vehicle: alkali diluted with saline, higher = longer survival) was 89 % of control. The T/C (endpoint: median tumor weight (est.), dose: 15.0 mg/kg/injection, schedule: Q01DX009 (ip), vehicle: saline with Tween-80, higher = larger tumour) was 79 % of control, the T/C (endpoint: median tumor weight (est.), dose: 30.0 mg/kg/injection, schedule: Q01DX009 (ip), vehicle: saline with Tween-80, higher = larger tumour) was 72 % of control and the T/C (endpoint: median tumor weight (est.), dose: 35.0 mg/kg/injection, schedule: Q01DX011 (ip), vehicle: alkali diluted with saline, higher = larger tumour) was 44 % of control. For the same compound, the T/C (endpoint: median tumor weight (est.), dose: 51.0 mg/kg/injection, schedule: Q01DX011 (ip), vehicle: alkali diluted with saline, higher = larger tumour) was 38 % of control and the T/C (endpoint: median tumor weight (est.), dose: 80.0 mg/kg/injection, schedule: Q01DX011 (ip), vehicle: alkali diluted with saline, higher = larger tumour) was 70 % of control and 75 % of control and 93 % of control.
With `CCN(CC)CCCC(C)Nc1c2ccc(Cl)cc2nc2cc(Cl)ccc12` (stereo not given) the T/C [1] was 105 % of control, the T/C [2] was 97 % of control and the T/C (endpoint: median survival time, dose: 50.0 mg/kg/injection, schedule: Q01DX009 (ip), vehicle: Klucel (hydroxypropylcellulose) (HPC), higher = longer survival) was 105 % of control.
`Nc1nncs1` was tested, and the T/C (endpoint: median survival time, dose: 6.25 mg/kg/injection, schedule: Q01DX009 (ip), vehicle: Klucel (hydroxypropylcellulose) (HPC), higher = longer survival) was 117 % of control and 122 % of control.
For `C[C@]12CC[C@H]3[C@@H](CC[C@]4(O)C[C@@H](O)CC[C@]34C=O)[C@@]1(O)CC[C@@H]2C1=CC(=O)OC1`, the T/C (endpoint: median survival time, dose: 3.12 mg/kg/injection, schedule: Q01DX009 (ip), vehicle: Klucel (hydroxypropylcellulose) (HPC), higher = longer survival) was 87 % of control, the T/C [1] was 113 % of control and the T/C [2] was 116 % of control.
With `Fc1ccc(NC(=S)Nc2cc(Cl)cc(Cl)c2)cc1` the T/C (endpoint: mean tumor weight, dose: 7.5 mg/kg/injection, schedule: Q01DX011 (ip), vehicle: carboxymethylcellulose (CMC), higher = larger tumour) was 60 % of control.
In the case of `COc1cc2c[n+](C)c3c4cc5c(cc4ccc3c2cc1OC)OCO5`, the T/C (endpoint: median survival time, dose: 5.0 mg/kg/injection, schedule: Q01DX009 (ip), vehicle: water, higher = longer survival) is reported as 103 % of control, the T/C (endpoint: median survival time, dose: 10.0 mg/kg/injection, schedule: Q01DX009 (ip), vehicle: water, higher = longer survival) is reported as 107 % of control and the T/C (endpoint: median survival time, dose: 20.0 mg/kg/injection, schedule: Q01DX009 (ip), vehicle: water, higher = longer survival) is reported as 87 % of control.
With `NC(=O)c1csc(C2OC(CO)C(O)C2O)n1` (stereo not given) the T/C (endpoint: median survival time, dose: 18.75 mg/kg/injection, schedule: Q01DX009 (ip), vehicle: water, higher = longer survival) was 190 % of control and 235 % of control, the T/C (endpoint: median survival time, dose: 37.5 mg/kg/injection, schedule: Q01DX009 (ip), vehicle: water, higher = longer survival) was 190 % of control and 235 % of control and the T/C (endpoint: median survival time, dose: 75.0 mg/kg/injection, schedule: Q01DX009 (ip), vehicle: water, higher = longer survival) was 190 % of control and 235 % of control. The T/C (endpoint: median survival time, dose: 150.0 mg/kg/injection, schedule: Q01DX009 (ip), vehicle: water, higher = longer survival) was 190 % of control and 235 % of control, the T/C (endpoint: median survival time, dose: 300.0 mg/kg/injection, schedule: Q01DX009 (ip), vehicle: water, higher = longer survival) was 190 % of control and 235 % of control and the T/C (endpoint: median survival time, dose: 600.0 mg/kg/injection, schedule: Q01DX009 (ip), vehicle: water, higher = longer survival) was 190 % of control and 235 % of control.
